# Columns and labels:
# SW-620 = format: cell-based; settings: Homo sapiens, one dose 10^-5 M, 48 h
# [1] = tested on: full NCI 60 cell lines panel; settings: for activity at 10 µM: Homo sapiens, 60 cell, 48 h, read-out: Mean % growth; for activity on all 60 cancer cell lines tested (in words): one dose
# HL-60(TB) = format: cell-based; settings: Homo sapiens, one dose 10^-5 M, 48 h
# MCF7 = format: cell-based; settings: Homo sapiens, one dose 10^-5 M, 48 h, read-out: % growth
# LOX IMVI = format: cell-based; settings: Homo sapiens, one dose 10^-5 M, 48 h, read-out: % growth
# SF-539 = format: cell-based; settings: Homo sapiens, one dose 10^-5 M, 48 h
# OVCAR-5 = format: cell-based; settings: Homo sapiens, one dose 10^-5 M, 48 h
# OVCAR-4 = format: cell-based; settings: Homo sapiens, one dose 10^-5 M, 48 h
# SN12C = format: cell-based, human; settings: Homo sapiens, one dose 10^-5 M, 48 h
# A549/ATCC = format: cell-based; settings: Homo sapiens, one dose 10^-5 M, 48 h
# SK-OV-3 = format: cell-based; settings: Homo sapiens, one dose 10^-5 M, 48 h
# U251 = format: cell-based; settings: Homo sapiens, U-251, one dose 10^-5 M, 48 h
# TK-10 = format: cell-based; settings: Homo sapiens, one dose 10^-5 M, 48 h
# MDA-MB-468 = format: cell-based; settings: Homo sapiens, one dose 10^-5 M, 48 h
# DU-145 = format: cell-based; settings: Homo sapiens, one dose 10^-5 M, 48 h
# HT29 = format: cell-based; settings: Homo sapiens, HT-29, one dose 10^-5 M, 48 h
# SF-295 = format: cell-based; settings: Homo sapiens, one dose 10^-5 M, 48 h
# UO-31 = format: cell-based; settings: Homo sapiens, UO-31, 48 h, one dose 10^-5 M, 48 h
# HCT-15 = format: cell-based; settings: Homo sapiens, one dose 10^-5 M, 48 h, read-out: % growth
# 786-0 = format: cell-based; settings: Homo sapiens, one dose 10^-5 M, 48 h
# SK-MEL-5 = format: cell-based; settings: Homo sapiens, one dose 10^-5 M, 48 h, read-out: % growth
# M14 = format: cell-based; settings: Homo sapiens, one dose 10^-5 M, 48 h
# ACHN = format: cell-based; settings: Homo sapiens, one dose 10^-5 M, 48 h
# KM12 = format: cell-based; settings: Homo sapiens, one dose 10^-5 M, 48 h
# HOP-92 = format: cell-based; settings: Homo sapiens, one dose 10^-5 M, 48 h
# MOLT-4 = format: cell-based; settings: Homo sapiens, one dose 10^-5 M, 48 h, read-out: % growth
# NCI-H23 = format: cell-based; settings: Homo sapiens, one dose 10^-5 M, 48 h, read-out: % growth
# HOP-62 = format: cell-based; settings: Homo sapiens, one dose 10^-5 M, 48 h
# RXF 393 = format: cell-based; settings: Homo sapiens, RXF 393, 48 h, one dose 10^-5 M, 48 h, read-out: % growth
# SNB-19 = format: cell-based; settings: Homo sapiens, one dose 10^-5 M, 48 h, read-out: % growth
# SK-MEL-28 = format: cell-based; settings: Homo sapiens, one dose 10^-5 M, 48 h
# RPMI-8226 = format: cell-based; settings: Homo sapiens, one dose 10^-5 M, 48 h
# MDA-MB-231/ATCC = format: cell-based; settings: Homo sapiens, one dose 10^-5 M, 48 h
# EKVX = format: cell-based; settings: Homo sapiens, one dose 10^-5 M, 48 h
# SR = format: cell-based; settings: Homo sapiens, one dose 10^-5 M, 48 h
# MDA-MB-435 = format: cell-based; settings: Homo sapiens, one dose 10^-5 M, 48 h, read-out: % growth
# UACC-257 = format: cell-based; settings: Homo sapiens, one dose 10^-5 M, 48 h
# HCT-116 = format: cell-based; settings: Homo sapiens, one dose 10^-5 M, 48 h, read-out: % growth
# OVCAR-3 = format: cell-based; settings: Homo sapiens, one dose 10^-5 M, 48 h
# T-47D = format: cell-based; settings: Homo sapiens, T47D, one dose 10^-5 M, 48 h, read-out: % growth
# SF-268 = format: cell-based; settings: Homo sapiens, one dose 10^-5 M, 48 h, read-out: % growth
# NCI-H522 = format: cell-based; settings: Homo sapiens, one dose 10^-5 M, 48 h
# OVCAR-8 = format: cell-based; settings: Homo sapiens, one dose 10^-5 M, 48 h
# SK-MEL-2 = format: cell-based; settings: Homo sapiens, one dose 10^-5 M, 48 h
# PC-3 = format: cell-based; settings: Homo sapiens, one dose 10^-5 M, 48 h
# UACC-62 = format: cell-based; settings: Homo sapiens, one dose 10^-5 M, 48 h
# NCI-H460 = format: cell-based; settings: Homo sapiens, one dose 10^-5 M, 48 h, read-out: % growth
# CAKI-1 = format: cell-based; settings: Homo sapiens, CAKI-1, 48 h, one dose 10^-5 M, 48 h
# SNB-75 = format: cell-based; settings: Homo sapiens, one dose 10^-5 M, 48 h
# HS 578T = format: cell-based; settings: Homo sapiens; one dose 10^-5 M, 48 h; HS 578T; read-out: % growth
# K-562 = format: cell-based; settings: Homo sapiens, K562, one dose 10^-5 M, 48 h
# NCI-H226 = format: cell-based; settings: Homo sapiens, one dose 10^-5 M, 48 h
# MALME-3M = format: cell-based; settings: Homo sapiens, one dose 10^-5 M, 48 h
# A498 = format: cell-based; settings: Homo sapiens, one dose 10^-5 M, 48 h
# CCRF-CEM = format: cell-based; settings: Homo sapiens, one dose 10^-5 M, 48 h
# IGROV1 = format: cell-based; settings: Homo sapiens, IGROV-1, one dose 10^-5 M, 48 h, read-out: % growth
# HCC-2998 = format: cell-based; settings: Homo sapiens, one dose 10^-5 M, 48 h
compound,measurement,setting,value
"N=C(NN=Cc1ccc(Cl)cc1)c1c(N)nc(S)nc1-c1ccc(Cl)cc1 [Compound 4h, 4-amino-6–(4-chlorophenyl)-N'-[(4-chlorophenyl)methylene]-2-mercapto pyrimidine-5-carboximidohydrazide]",% growth at 10 µM,SW-620,103%
same,activity at 10 µM,[1],91%
same,activity on all 60 cancer cell lines tested (in words),[1],weak activity
same,% growth at 10 µM,HL-60(TB),101%
same,activity at 10 µM,MCF7,76.6%
same,activity at 10 µM,LOX IMVI,94.3%
same,% growth at 10 µM,SF-539,80.4%
same,percent cell growth at 10 µM,OVCAR-5,95.4%
same,% growth at 10 µM,OVCAR-4,83.1%
same,% growth at 10 µM,SN12C,91.8%
same,% growth at 10 µM,A549/ATCC,93.1%
same,% growth at 10 µM,SK-OV-3,77.5%
same,% growth at 10 µM,U251,94%
same,% cell growth at 10 µM,TK-10,122%
same,percent cell growth at 10 µM,MDA-MB-468,99.3%
same,% growth at 10 µM,DU-145,108%
same,% growth at 10 µM,HT29,99%
same,% cell growth at 10 µM,SF-295,90.2%
same,% cell growth at 10 µM,UO-31,66.3%
same,activity at 10 µM,HCT-15,90.4%
same,% growth at 10 µM,786-0,98.5%
same,activity at 10 µM,SK-MEL-5,97.3%
same,% growth at 10 µM,M14,104%
same,% growth at 10 µM,ACHN,77.2%
same,% growth at 10 µM,KM12,91.9%
same,% growth at 10 µM,HOP-92,84.2%
same,activity at 10 µM,MOLT-4,85.8%
same,activity at 10 µM,NCI-H23,93.7%
same,% growth at 10 µM,HOP-62,95.6%
same,activity at 10 µM,RXF 393,103%
same,activity at 10 µM,SNB-19,87.5%
same,% cell growth at 10 µM,SK-MEL-28,100%
same,% growth at 10 µM,RPMI-8226,83.8%
same,% growth at 10 µM,MDA-MB-231/ATCC,69.7%
same,% cell growth at 10 µM,EKVX,75%
same,percent cell growth at 10 µM,SR,86.8%
same,activity at 10 µM,MDA-MB-435,98.8%
same,percent cell growth at 10 µM,UACC-257,101%
same,activity at 10 µM,HCT-116,86%
same,% growth at 10 µM,OVCAR-3,107%
same,activity at 10 µM,T-47D,72.1%
same,activity at 10 µM,SF-268,96%
same,% growth at 10 µM,NCI-H522,85.4%
same,% growth of cells at 10 µM,OVCAR-8,94.8%
same,% growth at 10 µM,SK-MEL-2,101%
same,percent cell growth at 10 µM,PC-3,79.6%
same,% growth at 10 µM,UACC-62,81.8%
same,activity at 10 µM,NCI-H460,93.7%
same,% growth at 10 µM,CAKI-1,79.4%
same,% growth at 10 µM,SNB-75,83.5%
same,activity at 10 µM,HS 578T,93%
same,% growth at 10 µM,K-562,86%
same,% growth at 10 µM,NCI-H226,99%
same,% growth at 10 µM,MALME-3M,107%
same,% growth at 10 µM,A498,102%
same,% cell growth at 10 µM,CCRF-CEM,75.5%
same,activity at 10 µM,IGROV1,78.8%
same,% growth at 10 µM,HCC-2998,103%
"N=C(NN=Cc1ccc([N+](=O)[O-])cc1)c1c(N)nc(S)nc1-c1ccc(Cl)cc1 [Compound 4i, 4-amino-6–(4-chlorophenyl)-2-mercapto-N'-[(4-nitrophenyl)methylene] pyrimidine-5-carboximidohydrazide]",% growth at 10 µM,SW-620,102%
same,activity at 10 µM,[1],101%
same,activity on all 60 cancer cell lines tested (in words),[1],weak activity
same,% growth at 10 µM,HL-60(TB),97.3%
same,activity at 10 µM,MCF7,90.7%
same,activity at 10 µM,LOX IMVI,106%
same,% growth at 10 µM,SF-539,96.7%
same,percent cell growth at 10 µM,OVCAR-5,101%
same,% growth at 10 µM,OVCAR-4,98.6%
same,% growth at 10 µM,SN12C,92.6%
same,% growth at 10 µM,A549/ATCC,103%
same,% growth at 10 µM,SK-OV-3,103%
same,% growth at 10 µM,U251,98.8%
same,% cell growth at 10 µM,TK-10,112%
same,percent cell growth at 10 µM,MDA-MB-468,114%
same,% growth at 10 µM,DU-145,108%
same,% growth at 10 µM,HT29,101%
same,% cell growth at 10 µM,SF-295,96.7%
same,% cell growth at 10 µM,UO-31,91%
same,activity at 10 µM,HCT-15,95.2%
same,% growth at 10 µM,786-0,103%
same,activity at 10 µM,SK-MEL-5,101%
same,% growth at 10 µM,M14,107%
same,% growth at 10 µM,ACHN,92.1%
same,% growth at 10 µM,KM12,99.2%
same,% growth at 10 µM,HOP-92,97%
same,activity at 10 µM,MOLT-4,105%
same,activity at 10 µM,NCI-H23,106%
same,% growth at 10 µM,HOP-62,95%
same,activity at 10 µM,RXF 393,108%
same,activity at 10 µM,SNB-19,94.2%
same,% cell growth at 10 µM,SK-MEL-28,101%
same,% growth at 10 µM,RPMI-8226,89%
same,% growth at 10 µM,MDA-MB-231/ATCC,96%
same,% cell growth at 10 µM,EKVX,95.8%
same,percent cell growth at 10 µM,SR,96.5%
same,activity at 10 µM,MDA-MB-435,101%
same,percent cell growth at 10 µM,UACC-257,96.5%
same,activity at 10 µM,HCT-116,108%
same,% growth at 10 µM,OVCAR-3,119%
same,activity at 10 µM,T-47D,90.5%
same,activity at 10 µM,SF-268,117%
same,% growth at 10 µM,NCI-H522,92.9%
same,% growth of cells at 10 µM,OVCAR-8,105%
same,% growth at 10 µM,SK-MEL-2,108%
same,percent cell growth at 10 µM,PC-3,90.1%
same,% growth at 10 µM,UACC-62,94.6%
same,activity at 10 µM,NCI-H460,104%
same,% growth at 10 µM,CAKI-1,89.6%
same,% growth at 10 µM,SNB-75,115%
same,activity at 10 µM,HS 578T,118%
same,% growth at 10 µM,K-562,96.3%
same,% growth at 10 µM,NCI-H226,150%
same,% growth at 10 µM,MALME-3M,96.9%
same,% growth at 10 µM,A498,114%
same,% cell growth at 10 µM,CCRF-CEM,88.6%
same,activity at 10 µM,IGROV1,99.4%
same,% growth at 10 µM,HCC-2998,104%

# — PMC10866072, “Design, synthesis, molecular modelling and biological evaluation of novel 6-amino-5-cyano-2-thiopyrimidine derivatives as potent anticancer agents against leukemia and apoptotic inducers” (Journal of Enzyme Inhibition and Medicinal Chemistry, 2024)
